Results from US20240391923A1, “METHIONINE ADENOSYLTRANSFERASE 2A INHIBITOR FOR TREATING MTAP DELETION-TYPE CANCER” (SUZHOU GENHOUSE BIO CO., LTD., priority 2022, published 2024).
Like-named read-outs stand apart in the source and are kept apart here.

What was measured:
Hut-78 cell strain = experiment: Tumor cell proliferation inhibition assay (CellTiter-Glo), Hut-78; type: cell-based; conditions: Homo sapiens, HuT78, 120 h, Hut-78 cells, 5-day treatment
Method in brief: (§1)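 Growth inhibition is evaluated from cellular ATP measured with CellTiter-Glo once cells have been treated for 5 days. Compounds are added 24 h after seeding as ten threefold dilutions starting at 10 μM, with a separate DMSO treatment group.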

hERG potassium current = molecular target: T1, hERG potassium current (Homo sapiens, UniProt Q12809); experiment: hERG inhibition test (whole-cell patch clamp, Qpatch); type: cell-based; conditions: initial concentration 30 μM, 6 concentration points
T1 construct: expressed in transfected cells; host or cells: HEK293, cultured under G418 selection
Procedure: The BEK293 cells were cultured in a DiVEM medium containing […] and 0.8 mg/mL G418 at 37° C. with 5% o CO2. The cells were digested by TrypLE™ Express and centrifuged. The cell density was adjusted to 2×10^6 cells/mL. The cells were gently mixed for 15-20 min using a shaker equilibrated at room temperature, and subjected to patch clamping on a machine. The medium of the prepared cells was replaced with extracellular fluid. The intracellular fluid and the extracellular fluid were taken from the fluid pool, and respectively added to the intracellular fluid pool and the cell and the test substance pool of the QPlate chip. The voltage stimulation of the whole-cell hERG potassium current was recorded by the whole-cell patch clamp, and the test data was collected and stored by Qpatch. The compound was diluted 3-fold at an initial concentration of 30 μM, and 6 concentration points were set, with each drug concentration being set for two administrations over a period of at least 5 min. The current detected in compound-free extracellular fluid for each cell was served as its own control group, and the detection was repeated at least twice independently using two cells per concentration. All electrophysiological experiments were performed at room temperature.
For data analysis, the current acted for each drug concentration and the current of the blank control were standardized
and then the inhibition rate corresponding to each drug concentration was calculated
The mean and standard error were calculated for each concentration, and the half maximal inhibitory concentration of each compound was calculated:
The dose-dependent effect was fitted non-linearly using the above equation, wherein Y represents the inhibition rate, C represents the concentration of the test substance, IC50 is the half maximal inhibitory concentration, and HillSlope represents the Hill coefficient. Curve fitting and calculation of IC50 were performed by Graphpad software.

[1] = system: HCT116-MTAP wild-type (+/+)-cell strain; experiment: Tumor cell proliferation inhibition assay (CellTiter-Glo), HCT116-MTAP wild-type (+/+); type: cell-based; conditions: Homo sapiens, 120 h, HCT116-MTAP wild-type (+/+) cells, 5-day treatment
Method in brief: as §1

[2] = Pharmacokinetic test in mice (IV and PO); type: in vivo; conditions: BALB/c mice; for AUC / clearance / bioavailability / half-life / Vd: mouse, plasma; for half-life: read-out: T½ (converted); for Vd: read-out: Vz
[3] = system: SDMA in HCT116-MTAP-knockout cell line; experiment: Cell symmetric dimethylarginine (SDMA) test, In-cell Western, HCT116-MTAP-knockout; type: cell-based; conditions: Homo sapiens, 96 h
[4] = Saturation solubility of samples in FaSSIF solution; type: physicochemical; conditions: FaSSIF pH 6.5, room temperature overnight
Procedure: About 0.21 g of sodium hydroxide, about 2.24 g of sodium dihydrogen phosphate dihydrate, and 3.09 g of sodium chloride were weighed out and dissolved in 500 mL of water, and then the pH was adjusted to 6.5 with 1 N sodium hydroxide or 1 N hydrochloric acid. 112 mg of FaSSIF solid was weighed out and placed in a 50 mL volumetric flask, and the above buffer was added for dissolution, diluted to volume, mixed well, and left to stand at room temperature for 2 h or more.
• Test sample: about 1 mg of the test sample was taken, and 1 mL of FaSSIF solution was added. The mixture was stirred at room temperature overnight and centrifuged, and the supernatant was collected and injected for analysis. • Control substance solution: about 1.5 mg of the test sample was precisely weighed out and placed in a 50 mL volumetric flask, and DMF was added for dissolution, diluted to volume, and mixed well.
• Mobile phase A: 1000 mL of purified water was accurately weighed out, 1 mL of formic acid was added, and the mixture was mixed well and degassed with ultrasonic. • Mobile phase B: acetonitrile
The peak of the main component of the control substance and the peak of the test substance consistent with the retention time of the peak of the main component of the control substance were integrated, and the concentration thereof in the FaSSIF solution was calculated according to external standard method.

[5] = molecular target: MAT2A recombinant protein (Homo sapiens, UniProt P31153); experiment: MAT2A inhibitory activity (malachite green colorimetric enzyme assay); type: biochemical
Method in brief: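 Compounds tested over 10 points, 3-fold dilutions, top final concentration 1000 nM. Enzyme reaction: MAT2A, L-methionine, ATP, room temperature, 60 min, in HEPES pH 7.5 buffer with KCl, MgCl2 and DTT; inorganic phosphate read colorimetrically (malachite green, A630). Inhibition vs log concentration fitted for IC50.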

[6] = IC50 score, read-out: Tumor cell 5-day relative growth inhibition (Hut-78) (nM), score
[7] = IC50 value, read-out: Tumor cell 5-day relative growth inhibition (Hut-78)
[8] = IC50 score, read-out: Tumor cell 5-day relative growth inhibition (HCT116-MTAP+/+) (nM), score
[9] = IC50 value, read-out: Tumor cell 5-day relative growth inhibition (HCT116-MTAP+/+)
[10] = IC50 score class, read-out: Cell 96 h SDMA Inhibition (HCT116-MTAP−/−) (score)
[11] = read-out: Cell 96 h SDMA Inhibition (HCT116-MTAP−/−)
[12] = IC50 score class, read-out: MAT2A Inhibition (score)

Sequence of MAT2A recombinant protein (P31153 whole entry): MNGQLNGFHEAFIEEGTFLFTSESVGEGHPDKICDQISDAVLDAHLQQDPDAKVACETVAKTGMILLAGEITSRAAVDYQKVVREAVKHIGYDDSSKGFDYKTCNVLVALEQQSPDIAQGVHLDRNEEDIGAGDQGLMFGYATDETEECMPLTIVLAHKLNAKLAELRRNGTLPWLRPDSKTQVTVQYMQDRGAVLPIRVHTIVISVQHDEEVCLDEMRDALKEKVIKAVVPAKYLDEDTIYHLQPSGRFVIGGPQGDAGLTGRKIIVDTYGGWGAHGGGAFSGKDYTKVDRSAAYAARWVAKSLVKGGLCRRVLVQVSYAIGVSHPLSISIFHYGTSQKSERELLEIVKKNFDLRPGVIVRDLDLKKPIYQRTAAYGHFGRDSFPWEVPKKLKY
T1 sequence (Q12809 whole entry): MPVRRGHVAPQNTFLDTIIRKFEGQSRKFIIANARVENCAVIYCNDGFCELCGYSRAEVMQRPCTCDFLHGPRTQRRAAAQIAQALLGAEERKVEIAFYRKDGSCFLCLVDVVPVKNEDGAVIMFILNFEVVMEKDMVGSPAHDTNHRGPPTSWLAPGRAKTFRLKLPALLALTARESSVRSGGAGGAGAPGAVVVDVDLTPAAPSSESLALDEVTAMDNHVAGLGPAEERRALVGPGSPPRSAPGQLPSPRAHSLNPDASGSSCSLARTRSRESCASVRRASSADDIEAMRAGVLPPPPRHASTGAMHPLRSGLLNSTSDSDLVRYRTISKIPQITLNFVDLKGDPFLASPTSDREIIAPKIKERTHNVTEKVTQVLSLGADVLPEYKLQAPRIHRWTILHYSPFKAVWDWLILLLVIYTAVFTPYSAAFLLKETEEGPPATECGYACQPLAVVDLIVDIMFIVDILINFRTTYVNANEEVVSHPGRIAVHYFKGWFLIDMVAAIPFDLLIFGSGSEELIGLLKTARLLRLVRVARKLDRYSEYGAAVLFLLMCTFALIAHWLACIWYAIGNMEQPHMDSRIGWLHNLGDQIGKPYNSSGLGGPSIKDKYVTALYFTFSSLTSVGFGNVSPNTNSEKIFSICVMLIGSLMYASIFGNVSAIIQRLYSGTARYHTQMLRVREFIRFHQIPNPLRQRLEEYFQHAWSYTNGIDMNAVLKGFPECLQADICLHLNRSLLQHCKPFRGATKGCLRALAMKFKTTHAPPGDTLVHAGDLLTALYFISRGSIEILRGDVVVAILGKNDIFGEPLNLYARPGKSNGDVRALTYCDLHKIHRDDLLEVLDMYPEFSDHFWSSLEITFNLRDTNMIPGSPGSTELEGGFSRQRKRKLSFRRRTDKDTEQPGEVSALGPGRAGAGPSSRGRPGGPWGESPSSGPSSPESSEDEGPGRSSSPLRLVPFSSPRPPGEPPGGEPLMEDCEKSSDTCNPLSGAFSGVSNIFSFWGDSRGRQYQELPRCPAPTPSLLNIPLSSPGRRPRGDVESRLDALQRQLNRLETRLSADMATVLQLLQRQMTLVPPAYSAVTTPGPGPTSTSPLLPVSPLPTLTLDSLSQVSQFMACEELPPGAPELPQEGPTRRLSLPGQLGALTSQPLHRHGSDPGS

Compound | IC50 (Hut-78 cell strain; [6]) [nM] | IC50 (Hut-78 cell strain; [7]) [nM] | IC50 (hERG potassium current) [µM] | IC50 [1, 8] [nM] | IC50 [1, 9] [nM] | AUC ([2]; IV 2 mg/kg) [µM·h] | clearance ([2]; IV 2 mg/kg) [mL/min/kg] | bioavailability ([2]; IV 2 mg/kg, PO 10 mg/kg) [%] | half-life ([2]; IV 2 mg/kg) [min] | Vd ([2]; IV 2 mg/kg) [L/kg] | AUC ([2]; PO 10 mg/kg) [µM·h] | half-life ([2]; PO 10 mg/kg) [min] | IC50 [3, 10] [nM] | IC50 [3, 11] [nM] | FaSSIF (pH = 6.5) (μg/mL) [4] [μg/mL] | AUC (in words) ([2]; summary of Table 7) | half-life (T½) (in words) ([2]; summary of Table 7) | IC50 [5, 12] [nM] | IC50 ([5]; read-out: MAT2A Inhibition) [nM] | further results
Cc1ncccc1-n1c(=O)c2nn(C)cc2c2ccc(C(F)(F)F)nc21 (single isomer, unassigned) [Compound B180] | < 500 | 17.4 | > 30 | < 500 | 191 | 3.37 | 27.3 | 274 | 9.6 | 0.4 | 46.2 | 30.6 | < 200 | 10.3 |  |  |  |  |  | 
Cn1cc2c(n1)c(=O)n(-c1cccnc1)c1cc(Cl)ccc21 [Compound B12] | < 500 | 145 | > 30 | 500 to 2000 | 1650 | 4.5 | 22.7 |  | 58.8 | 1.9 | 26.8 | 48.6 | 200 to 1000 | 219 |  |  |  |  |  | 
Cn1cc2c(n1)c(=O)n(-c1cccc3[nH]ncc13)c1cc(Cl)ccc21 [Compound B60] | < 500 | 37.1 | > 40 | 500 to 2000 | 1000 | 119 | 0.667 | 115 | 600 | 0.6 | 683 | 540 | < 200 | 34.9 | 20.9 | relatively high | relatively long | < 100 | 47.5 | 
Cn1cc2c(n1)c(=O)n(-c1cccc(O)c1)c1nc(C(F)(F)F)ccc21 [Compound B148] | < 500 | 135 | > 30 |  |  |  |  |  |  |  |  |  | < 200 | 49.2 |  |  |  | < 100 | 24.6 | 
O=c1c2n[nH]cc2c2ccc(C(F)(F)F)nc2n1-c1cccnc1 [Compound B178] | < 500 | 184 | > 30 | ≥ 2000 | ≥ 2000 |  |  |  |  |  |  |  | < 200 | 37.1 |  |  |  | < 100 | 19 | 
Cn1cc2c(n1)c(=O)n(-c1cccc3[nH]ncc13)c1nc(C(F)(F)F)ccc21 [Compound B181] | < 500 | 36.5 | > 30 | 500 to 2000 | 1340 | 34.3 | 2.33 | 131 | 438 | 1.4 | 242 | 207 | < 200 | 29 | 20.7 | relatively high | relatively long | < 100 | 14.7 | 
Cn1cc2c(n1)c(=O)n(-c1ccccc1Cl)c1nc(C(F)(F)F)ccc21 [Compound B182] | 500 to 2000 | 1220 |  | ≥ 2000 | 7340 |  |  |  |  |  |  |  | < 200 | 176 | 17.6 |  |  | < 100 | 56.9 | 
Cn1cc2c(n1)c(=O)n(-c1cccc3[nH]ncc13)c1cc(Cl)c(F)cc21 [Compound B257] |  |  | > 30 | 500 to 2000 | 464 | 49.8 | 0.917 | 220 | 588 | 0.8 | 2110 | 2050 | < 200 | 70 | 248 | relatively high | relatively long | < 100 | 39.6 | 
Cn1cc2c(n1)c(=O)n(-c1cccc3[nH]ncc13)c1cc(Cl)c(C#N)cc21 [Compound B258] |  |  |  | ≥ 2000 | > 10000 | 21.4 | 2.08 |  | 852 | 2.6 |  |  | < 200 | 67.6 | 131 | relatively high | relatively long | < 100 | 28 | tissue distribution (in words) ([2]; concluded from Vz, Table 7): good; Vz value (in words) ([2]; summary of Table 7): relatively high; bioavailability ([2]; IV 2 mg/kg, PO 5 mg/kg): 93%; AUC ([2]; PO 5 mg/kg): 80.7 µM·h; half-life ([2]; PO 5 mg/kg): 462 min
Cn1cc2c(n1)c(=O)n(-c1cccnc1C1CC1)c1cc(Cl)c(F)cc21 [Compound B340] |  |  |  | ≥ 2000 | > 10000 | 46 | 1.83 |  | 558 | 1.58 | 219 | 462 | < 200 | 12 | 36 |  |  |  |  | 
